Patent publication US12357565B2, “Ocular implant containing a tyrosine kinase inhibitor” (Ocular Therapeutix, Inc., priority 2020, dated 2025)

Experiments:
[1] = 1.25 mg dose, rabbits (Sinapis et al., 2011); cited from earlier work
[2] = system: VEGF-induced vascular leakage; experiment: VEGF challenge in rabbits: vascular leakage scored by fluorescein angiography; format: in vivo; details: rabbit; 1.25 mg Avastin® alone (group 3)
[3] = Rugo et al. 2005, patients; cited from earlier work

Question: For “Avastin®: anti-VEGF therapeutic, 1.25 mg intravitreal”, which Half-life [1] is on record?
Answer: 158 h

Question: And the “Time after which vascular leakage re-occurred (effect lasted until)” value [2]?
Answer: 3 months

Question: Which “Clearance half-life (t1/2)” value [3] does the source give for CNC(=O)c1ccccc1Sc1ccc2c(/C=C/c3ccccn3)n[nH]c2c1 [axitinib, N-methyl-2-[3-((E)-2-pyridin-2-yl-vinyl)-1H-indazol-6-ylsulfanyl]-benzamide] here?
Answer: a few hours
